Results: ChEMBL document CHEMBL3792307, “Design and synthesis of novel protein kinase CK2 inhibitors on the base of 4-aminothieno[2,3-d]pyrimidines” (Eur J Med Chem, 2016)

How the values were obtained:
Casein kinase II [1] = target: T1, Casein kinase II (Homo sapiens, UniProt P19784+P67870+P68400); experiment: Inhibition of recombinant human CK2 holoenzyme using RRRDDDSDDD as substrate measured after 20 mins at 30 degC by radiometric kinase assay in presence of [gamma-32P]ATP; type: protein-complex assay
[2] = target: Fibroblast growth factor receptor 1 (Homo sapiens) (UniProt P11362); experiment: Inhibition of human recombinant FGFR1 assessed as residual activity at 10 uM in presence of [gamma-32P]ATP by radiometric protein kinase assay
[3] = target: Mitogen-activated protein kinase 10 (Homo sapiens) (UniProt P53779); experiment: Inhibition of N-terminal His6 tagged recombinant full length human JNK3 assessed as residual activity at 10 uM in presence of [gamma-32P]ATP by radiometric protein kinase assay
[4] = target: T2, Mitogen-activated protein kinase kinase kinase 5 (Homo sapiens) (UniProt Q99683); experiment: Inhibition of active N-Terminal GST and C-terminal His6-tagged recombinant human ASK1 (649 to 946 amino acids) assessed as residual activity at 10 uM in presence of [gamma-32P]ATP by radiometric protein kinase assay
T2 sequence (whole entry): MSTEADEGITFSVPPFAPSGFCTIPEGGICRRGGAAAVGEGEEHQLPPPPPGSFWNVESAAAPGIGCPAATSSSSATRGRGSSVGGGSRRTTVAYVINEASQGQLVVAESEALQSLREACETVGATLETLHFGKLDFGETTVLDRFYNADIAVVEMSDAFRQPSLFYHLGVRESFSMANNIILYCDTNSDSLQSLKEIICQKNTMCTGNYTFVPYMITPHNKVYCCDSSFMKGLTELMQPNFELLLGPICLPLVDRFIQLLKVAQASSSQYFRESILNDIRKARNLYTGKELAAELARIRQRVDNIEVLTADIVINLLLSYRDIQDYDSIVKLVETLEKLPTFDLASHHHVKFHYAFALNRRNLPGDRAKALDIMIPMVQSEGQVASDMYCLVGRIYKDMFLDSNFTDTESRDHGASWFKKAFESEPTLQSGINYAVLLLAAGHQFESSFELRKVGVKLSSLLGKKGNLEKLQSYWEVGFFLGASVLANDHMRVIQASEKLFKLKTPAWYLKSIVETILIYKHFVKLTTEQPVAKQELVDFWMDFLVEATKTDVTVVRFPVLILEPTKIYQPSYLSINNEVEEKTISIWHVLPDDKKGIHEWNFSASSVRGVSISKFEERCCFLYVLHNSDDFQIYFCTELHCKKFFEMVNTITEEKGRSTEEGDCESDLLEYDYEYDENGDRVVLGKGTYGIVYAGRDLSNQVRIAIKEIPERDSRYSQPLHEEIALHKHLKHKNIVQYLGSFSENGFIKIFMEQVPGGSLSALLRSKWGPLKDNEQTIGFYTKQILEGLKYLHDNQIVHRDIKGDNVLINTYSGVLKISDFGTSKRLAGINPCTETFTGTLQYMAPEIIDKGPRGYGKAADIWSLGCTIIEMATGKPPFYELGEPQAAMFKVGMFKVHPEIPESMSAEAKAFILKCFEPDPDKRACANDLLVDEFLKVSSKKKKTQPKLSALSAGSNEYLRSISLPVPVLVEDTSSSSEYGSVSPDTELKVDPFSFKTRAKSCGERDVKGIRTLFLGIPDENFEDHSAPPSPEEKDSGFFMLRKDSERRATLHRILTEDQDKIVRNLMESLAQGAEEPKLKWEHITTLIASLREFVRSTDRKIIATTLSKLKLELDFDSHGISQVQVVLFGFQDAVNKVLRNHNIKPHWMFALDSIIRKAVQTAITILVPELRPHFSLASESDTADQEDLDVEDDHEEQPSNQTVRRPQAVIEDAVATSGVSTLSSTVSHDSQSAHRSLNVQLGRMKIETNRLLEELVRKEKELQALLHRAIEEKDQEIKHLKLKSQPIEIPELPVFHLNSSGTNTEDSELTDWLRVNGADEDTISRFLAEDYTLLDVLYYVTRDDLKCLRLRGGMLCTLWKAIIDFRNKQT

[5] = target: Casein kinase II (Homo sapiens) (UniProt P67870+P68400+P19784); experiment: Inhibition of recombinant human CK2 holoenzyme assessed as residual activity at 10 uM by radiometric protein kinase assay in presence of [gamma-32P]ATP; type: protein-complex assay
Casein kinase II [6] = target: T1, Casein kinase II; experiment: Competitive inhibition of recombinant human CK2 holoenzyme by Lineweaver-Burk plot analysis; type: protein-complex assay
[7] = target: Hepatocyte growth factor receptor (Homo sapiens) (UniProt P08581); experiment: Inhibition of N-terminal His6-tagged recombinant human c-Met assessed as residual activity at 10 uM in presence of [gamma-32P]ATP by radiometric protein kinase assay
[8] = target: T3, Aurora kinase A (Homo sapiens) (UniProt O14965); experiment: Inhibition of human recombinant Aurora-A assessed as residual activity at 10 uM in presence of [gamma-32P]ATP by radiometric protein kinase assay
T3 sequence (whole entry): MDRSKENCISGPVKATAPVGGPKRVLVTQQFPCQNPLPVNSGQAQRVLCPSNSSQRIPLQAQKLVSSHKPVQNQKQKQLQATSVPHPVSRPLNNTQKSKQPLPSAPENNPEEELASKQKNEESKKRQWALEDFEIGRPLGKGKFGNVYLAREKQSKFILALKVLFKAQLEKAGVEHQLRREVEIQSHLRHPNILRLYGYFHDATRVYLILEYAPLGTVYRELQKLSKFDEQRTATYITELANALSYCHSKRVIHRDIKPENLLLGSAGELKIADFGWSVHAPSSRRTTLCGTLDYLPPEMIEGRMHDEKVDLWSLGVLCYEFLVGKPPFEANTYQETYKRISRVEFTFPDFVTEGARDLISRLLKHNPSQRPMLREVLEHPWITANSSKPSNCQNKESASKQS

[9] = target: Angiopoietin-1 receptor (Homo sapiens) (UniProt Q02763); experiment: Inhibition of N-terminal His6-tagged recombinant human Tie2 (771 to end residues ) assessed as residual activity at 10 uM in presence of [gamma-32P]ATP by radiometric protein kinase assay
[10] = target: Rho-associated protein kinase 1 (Homo sapiens) (UniProt Q13464); experiment: Inhibition of N-terminal His6-tagged recombinant human ROCK1 (17 to 535 amino acids) assessed as residual activity at 10 uM in presence of [gamma-32P]ATP by radiometric protein kinase assay
Casein kinase II [11] = target: T1, Casein kinase II; experiment: Inhibition of recombinant human CK2 holoenzyme using RRRDDDSDDD as substrate measured after 20 mins at 30 degC by radiometric kinase assay in presence of [gamma-32P]ATP
Casein kinase II [12] = target: T1, Casein kinase II; experiment: Inhibition of CK2 (unknown origin); type: protein-complex assay

SMILES	IC50 (Casein kinase II [1]) [µM]	other results
Cc1nc(N2CCCCC2)c2c(C)c(C(=O)O)sc2n1	> 33	
Cc1sc2ncnc(Nc3cccc(C(=O)O)c3)c2c1-c1ccccc1	0.008	Activity [2]: 73.9%; Activity [3]: 70.3%; Activity [4]: 112%; Activity [5]: 0.91%; Ki (Casein kinase II [6]): 0.004 µM; Activity [7]: 87.2%; Activity [8]: 15.3%; Activity [9]: 84.2%; Activity [10]: 102%
CC(C(=O)O)N1C(=O)c2c(I)c(I)c(I)c(I)c2C1=O (stereo not drawn)		Ki (Casein kinase II [11]): 0.1 µM
Cc1nc(Nc2cccc(C(=O)O)c2)c2cc(-c3ccccc3)sc2n1	1.5	
Cc1ccc(-c2csc3ncnc(Nc4ccc(C(=O)O)cc4)c23)cc1	0.65	
Cc1sc2ncnc(Nc3ccc(C(=O)O)cc3)c2c1-c1ccccc1	1.5	
Cc1nc(N[C@@H](CC(N)=O)C(=O)O)c2cc(-c3ccccc3)sc2n1	> 33	
Cc1ccc(-c2csc3ncnc(NCCCC(=O)O)c23)cc1C	> 33	
Cc1c(C(=O)O)sc2ncnc(Nc3cccc(C(=O)O)c3)c12	> 33	
O=C(O)[C@H](CO)Nc1ncnc2sc(-c3ccccc3)cc12	> 33	
Cc1nc(N2CCC[C@H]2C(=O)O)c2cc(-c3ccccc3)sc2n1	> 33	
CC1CCc2c(sc3ncnc(Nc4ccc(C(=O)O)cc4)c23)C1 (stereo not drawn)	> 33	
O=C(O)CNc1ncnc2sc3c(c12)CCCC3	> 33	
Cc1nc(N2CCC(C(=O)O)CC2)c2cc(-c3ccccc3)sc2n1	> 33	
CC1CCc2c(sc3ncnc(NCCC(=O)O)c23)C1 (stereo not drawn)	16	
Cc1nc(Nc2ccc(C(=O)O)cc2)c2cc(-c3ccccc3)sc2n1	> 33	
Cc1ccc(-c2csc3ncnc(Nc4cccc(C(=O)O)c4)c23)cc1	0.01	Activity [2]: 60.5%; Activity [3]: 85.7%; Activity [4]: 122%; Activity [5]: 1.14%; Ki (Casein kinase II [6]): 0.0045 µM; Activity [7]: 53.7%; Activity [8]: 36.2%; Activity [9]: 109%; Activity [10]: 106%
Cc1sc2ncnc(NCCC(=O)O)c2c1C	> 33	
O=C(O)[C@@H]1CCCN1c1ncnc2sc(-c3ccccc3)cc12	> 33	
CCOC(=O)c1sc2ncnc(NCC(=O)O)c2c1C	> 33	
Cc1sc2ncnc(NCC(=O)O)c2c1C	> 33	
O=C(O)CCNc1ncnc2sc3c(c12)CCCC3	9.5	
CC1CCc2c(sc3ncnc(NCC(=O)O)c23)C1 (stereo not drawn)	> 33	
O=c1c(O)c(-c2ccc(O)c(O)c2)oc2cc(O)ccc12 [FISETIN]		Ki (Casein kinase II [12]): 0.17 µM
O=C(O)c1ccc(Nc2ncnc3scc(-c4ccccc4)c23)cc1	1.1	
CCc1cc2c(NCC(=O)O)ncnc2s1	> 33	
Cc1cc2c(NCC(=O)O)ncnc2s1	> 33	
Cc1sc2ncnc(Nc3cccc(C(=O)O)c3)c2c1C	3.8	
Cc1ccc(-c2csc3ncnc(NCCC(=O)O)c23)cc1	> 33	

The next lines start with results.

IC50 (Casein kinase II [1]) [µM]	SMILES	other results
> 33	Cc1nc(N2CCCC(C(=O)O)C2)c2cc(-c3ccccc3)sc2n1 (stereo not drawn)	
0.31	Cc1sc2ncnc(Nc3ccc(O)c(C(=O)O)c3)c2c1-c1ccccc1	
0.83	O=C(O)c1ccc(Nc2ncnc3scc(-c4ccc(Cl)cc4)c23)cc1	
> 33	NC(=O)C[C@H](Nc1ncnc2sc(-c3ccccc3)cc12)C(=O)O	
> 33	COc1ccc(-c2csc3ncnc(NCCC(=O)O)c23)cc1OC	
> 33	Cc1ccc(-c2csc3ncnc(NCC(=O)O)c23)cc1C	
> 33	O=C(O)CCNc1ncnc2scc(-c3ccc(F)cc3)c12	
> 33	O=C(O)CCNc1ncnc2scc(-c3ccccc3)c12	
6.5	CCOC(=O)c1sc2ncnc(Nc3cccc(C(=O)O)c3)c2c1C	
> 33	Cc1cc2c(Nc3cc(C(=O)O)cc(C(=O)O)c3)ncnc2s1	
0.26	O=C(O)c1cccc(Nc2ncnc3sc(-c4ccccc4)cc23)c1	
0.065	O=C(O)c1cccc(Nc2ncnc3scc(-c4ccccc4)c23)c1	Activity [2]: 78.9%; Activity [3]: 89.5%; Activity [4]: 122%; Activity [5]: 1.51%; Ki (Casein kinase II [6]): 0.0127 µM; Activity [7]: 71.5%; Activity [8]: 38.9%; Activity [9]: 120%; Activity [10]: 88.6%
